#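 GI50 marks 50% less growth. TGI is the concentration that stops growth completely.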
# Key:
# Assay in all cases: NCI tumour cell line growth inhibition, 384-well format
# M14 melanoma = system: M14 melanoma
# HOP-92 NSCLC = system: HOP-92 NSCLC
# SW-620 colon = system: SW-620 colon
# SK-MEL-5 melanoma = system: SK-MEL-5 melanoma
# SF-268 CNS = system: SF-268 CNS
# MOLT-4 leukemia = system: MOLT-4 leukemia
# SF-539 CNS = system: SF-539 CNS
# HOP-62 NSCLC = system: HOP-62 NSCLC
# CAKI-1 renal = system: CAKI-1 renal
# SK-OV-3 ovarian = system: SK-OV-3 ovarian
# HS 578T breast = system: HS 578T breast
# MCF7 breast = system: MCF7 breast
# LOX IMVI melanoma = system: LOX IMVI melanoma
# BT-549 breast = system: BT-549 breast
# UO-31 renal = system: UO-31 renal
# K-562 leukemia = system: K-562 leukemia
# NCI-H460 NSCLC = system: NCI-H460 NSCLC
# NCI-H322M lung = system: NCI-H322M lung
# NCI-H23 lung = system: NCI-H23 lung
# MDA-MB-435 melanoma = system: MDA-MB-435 melanoma
# 786-0 renal = system: 786-0 renal
# HCC-2998 colon = system: HCC-2998 colon
# NCI/ADR-RES ovarian = system: NCI/ADR-RES ovarian
# HCT-15 colon = system: HCT-15 colon
# MDA-MB-468 breast = system: MDA-MB-468 breast
# SK-MEL-28 melanoma = system: SK-MEL-28 melanoma
# RPMI-8226 leukemia = system: RPMI-8226 leukemia
# PC-3 prostate = system: PC-3 prostate
# NCI-H522 lung = system: NCI-H522 lung
# SR leukemia = system: SR leukemia
# HT29 colon = system: HT29 colon
# UACC-257 melanoma = system: UACC-257 melanoma
# COLO 205 colon = system: COLO 205 colon
# SNB-19 CNS = system: SNB-19 CNS
# MDA-MB-231 breast = system: MDA-MB-231 breast
# MALME-3M melanoma = system: MALME-3M melanoma
# UACC-62 melanoma = system: UACC-62 melanoma
# EKVX NSCLC = system: EKVX NSCLC
# HL-60(TB) leukemia = system: HL-60(TB) leukemia
# DU-145 prostate = system: DU-145 prostate
# KM12 colon = system: KM12 colon
# CCRF-CEM leukemia = system: CCRF-CEM leukemia
# RXF 393 renal = system: RXF 393 renal
# IGROV1 ovarian = system: IGROV1 ovarian
# U251 glioblastoma = system: U251 glioblastoma
# SN12C renal = system: SN12C renal
# T-47D breast = system: T-47D breast
# OVCAR-4 ovarian = system: OVCAR-4 ovarian
# NCI-H226 lung = system: NCI-H226 lung
# SNB-75 CNS = system: SNB-75 CNS
# OVCAR-3 ovarian = system: OVCAR-3 ovarian
# A498 renal = system: A498 renal
# ACHN renal = system: ACHN renal
# TK-10 renal = system: TK-10 renal
# OVCAR-8 ovarian = system: OVCAR-8 ovarian
# HCT-116 colon = system: HCT-116 colon
# SF-295 CNS = system: SF-295 CNS
# A549 NSCLC = system: A549 NSCLC
compound,measurement,setting,value
NC1CCC(N[C@@H]2C[C@H]2c2ccccc2)CC1 (stereo partly specified),GI50,M14 melanoma,20.9 µM
same,TGI,M14 melanoma,40.2 µM
same,GI50,HOP-92 NSCLC,35.9 µM
same,TGI,HOP-92 NSCLC,> 100 µM
same,GI50,SW-620 colon,> 100 µM
same,TGI,SW-620 colon,> 100 µM
same,GI50,SK-MEL-5 melanoma,41.4 µM
same,TGI,SK-MEL-5 melanoma,> 100 µM
same,GI50,SF-268 CNS,76.2 µM
same,TGI,SF-268 CNS,> 100 µM
same,GI50,MOLT-4 leukemia,24 µM
same,TGI,MOLT-4 leukemia,77.8 µM
same,GI50,SF-539 CNS,23.4 µM
same,TGI,SF-539 CNS,64.1 µM
same,GI50,HOP-62 NSCLC,66.9 µM
same,TGI,HOP-62 NSCLC,> 100 µM
same,GI50,CAKI-1 renal,35.2 µM
same,TGI,CAKI-1 renal,> 100 µM
same,GI50,SK-OV-3 ovarian,> 100 µM
same,TGI,SK-OV-3 ovarian,> 100 µM
same,GI50,HS 578T breast,37.5 µM
same,TGI,HS 578T breast,> 100 µM
same,GI50,MCF7 breast,> 100 µM
same,TGI,MCF7 breast,> 100 µM
same,GI50,LOX IMVI melanoma,36.2 µM
same,TGI,LOX IMVI melanoma,> 100 µM
same,GI50,BT-549 breast,46.2 µM
same,TGI,BT-549 breast,> 100 µM
same,GI50,UO-31 renal,32.5 µM
same,TGI,UO-31 renal,> 100 µM
same,GI50,K-562 leukemia,31.4 µM
same,TGI,K-562 leukemia,> 100 µM
same,GI50,NCI-H460 NSCLC,77 µM
same,TGI,NCI-H460 NSCLC,> 100 µM
same,GI50,NCI-H322M lung,86.4 µM
same,TGI,NCI-H322M lung,> 100 µM
same,GI50,NCI-H23 lung,71.2 µM
same,TGI,NCI-H23 lung,> 100 µM
same,GI50,MDA-MB-435 melanoma,38.1 µM
same,TGI,MDA-MB-435 melanoma,> 100 µM
same,GI50,786-0 renal,33.4 µM
same,TGI,786-0 renal,> 100 µM
same,GI50,HCC-2998 colon,40.1 µM
same,TGI,HCC-2998 colon,> 100 µM
same,GI50,NCI/ADR-RES ovarian,> 100 µM
same,TGI,NCI/ADR-RES ovarian,> 100 µM
same,GI50,HCT-15 colon,34.1 µM
same,TGI,HCT-15 colon,> 100 µM
same,GI50,MDA-MB-468 breast,58.9 µM
same,TGI,MDA-MB-468 breast,> 100 µM
same,GI50,SK-MEL-28 melanoma,32.2 µM
same,TGI,SK-MEL-28 melanoma,> 100 µM
same,GI50,RPMI-8226 leukemia,41.5 µM
same,TGI,RPMI-8226 leukemia,> 100 µM
same,GI50,PC-3 prostate,64.7 µM
same,TGI,PC-3 prostate,> 100 µM
same,GI50,NCI-H522 lung,94.1 µM
same,TGI,NCI-H522 lung,> 100 µM
same,GI50,SR leukemia,6.76 µM
same,TGI,SR leukemia,18.6 µM
same,GI50,HT29 colon,20 µM
same,TGI,HT29 colon,43.7 µM
same,GI50,UACC-257 melanoma,17.5 µM
same,TGI,UACC-257 melanoma,33.1 µM
same,GI50,COLO 205 colon,66.7 µM
same,TGI,COLO 205 colon,> 100 µM
same,GI50,SNB-19 CNS,> 100 µM
same,TGI,SNB-19 CNS,> 100 µM
same,GI50,MDA-MB-231 breast,90.5 µM
same,TGI,MDA-MB-231 breast,> 100 µM
same,GI50,MALME-3M melanoma,21 µM
same,TGI,MALME-3M melanoma,47.3 µM
same,GI50,UACC-62 melanoma,19.4 µM
same,TGI,UACC-62 melanoma,38.2 µM
same,GI50,EKVX NSCLC,40.2 µM
same,TGI,EKVX NSCLC,> 100 µM
same,GI50,HL-60(TB) leukemia,10.2 µM
same,TGI,HL-60(TB) leukemia,28.9 µM
same,GI50,DU-145 prostate,87.1 µM
same,TGI,DU-145 prostate,> 100 µM
same,GI50,KM12 colon,61.9 µM
same,TGI,KM12 colon,> 100 µM
same,GI50,CCRF-CEM leukemia,31.5 µM
same,TGI,CCRF-CEM leukemia,> 100 µM
same,GI50,RXF 393 renal,32.1 µM
same,TGI,RXF 393 renal,> 100 µM
same,GI50,IGROV1 ovarian,48.8 µM
same,TGI,IGROV1 ovarian,> 100 µM
same,GI50,U251 glioblastoma,44.4 µM
same,TGI,U251 glioblastoma,> 100 µM
same,GI50,SN12C renal,> 100 µM
same,TGI,SN12C renal,> 100 µM
same,GI50,T-47D breast,> 100 µM
same,TGI,T-47D breast,> 100 µM
same,GI50,OVCAR-4 ovarian,> 100 µM
same,TGI,OVCAR-4 ovarian,> 100 µM
same,GI50,NCI-H226 lung,> 100 µM
same,TGI,NCI-H226 lung,> 100 µM
same,GI50,SNB-75 CNS,> 100 µM
same,TGI,SNB-75 CNS,> 100 µM
same,GI50,OVCAR-3 ovarian,25 µM
same,TGI,OVCAR-3 ovarian,> 100 µM
same,GI50,A498 renal,28.3 µM
same,TGI,A498 renal,> 100 µM
same,GI50,ACHN renal,> 100 µM
same,TGI,ACHN renal,> 100 µM
same,GI50,TK-10 renal,> 100 µM
same,TGI,TK-10 renal,> 100 µM
same,GI50,OVCAR-8 ovarian,49.4 µM
same,TGI,OVCAR-8 ovarian,> 100 µM
same,GI50,HCT-116 colon,41.6 µM
same,TGI,HCT-116 colon,> 100 µM
same,GI50,SF-295 CNS,> 100 µM
same,TGI,SF-295 CNS,> 100 µM
same,GI50,A549 NSCLC,> 100 µM
same,TGI,A549 NSCLC,> 100 µM
